Broadly, the IC50 is the midpoint of a concentration-inhibition curve. The low end stands for inhibition by little substance, the high end for a need for much substance.

Read-outs that look alike come from different tables or passages of the source.

For data set [1], the target named is muscarinic acetylcholine receptors (rat cortical receptors). The data set can be described thus: Inhibition of specific binding of ^3 H-Oxotremorine-M (^3 H-Oxo). As to conditions: rat cortex; ^3 H-Oxotremorine 1.0 nM, 25° C., 30 min. An excerpt:
Furthermore, the pharmacological properties of the compounds of the invention can also be illustrated by determining their capability to inhibit the specific binding of ^3 H-Oxotremorine-M (^3 H-Oxo). Birdsdall N. J. M., Hulme E. C., and Burgen A. S. V. (1980). "The Character of Muscarinic Receptors in Different Regions of the Rat Brain". Proc. Roy. Soc. London (Series B) 207,1.
^3 H-Oxo labels muscarinic receptor in the CNS (with a preference for agonist domains of the receptors). Three different sites are labelled by ^3 H-Oxo. […] Using the present experimental conditions only the high and medium affinity sites are determined.
The inhibitory effects of compounds on ^3 H-Oxo binding reflects the affinity for muscarinic acetylcholine receptors.
All preparations are performed at 0°-4° C. unless otherwise indicated. Fresh cortex (0.1-1 g) from male Wistar rats (150-250 g) is homogenized for 5-10 s in 10 ml 20 mM Hepes pH: 7.4, with an Ultra-Turrax homogenizer. The homogenizer is rinsed with 10 ml of buffer and the combined suspension centrifuged for 15 min. at 40,000×g. The pellet is washed three times with buffer. In each step the pellet is homogenized as before in 2×10 ml of buffer and centrifuged for 10 min. at 40,000×g.
The final pellet is homogenized in 20 mM Hepes pH: 7.4 (100 ml per g of original tissue) and used for binding assay. Aliquots of 0.5 ml is added 25 μl of test solution and 25 μl of ^3 H-Oxotremorine (1.0 nM, final concentration) mixed and incubated for 30 min. at 25° C. Non-specific binding is determined in triplicate using arecoline (1 μg/ml, final concentration) as the test substance. After incubation samples are added 5 ml of ice-cold buffer and poured directly onto Whatman GF/C glass fiber filters under suction and immediately washed 2 times with 5 ml of ice-cold buffer. The amount of radioactivity on the filters are determined by conventional liquid scintillation counting. Specific binding is total binding minus non specific binding.
Test substances are dissolved in 10 ml water (if necessary heated on a steam-bath for less than 5 min.) at a concentration of 2.2 mg/ml. 25-75% inhibition of specific binding must be obtained before calculation of IC50. The test value will be given as IC50 (the concentration (nM) of the test substance which inhibits the specific binding of ^3 H-Oxo by 50%).
IC50 =(applied test substance concentration)×(Cx /Co
where Co is specific binding in control assays and Cx is the specific binding in the test assay. (The calculations assume normal mass-action kinetics).
Table I illustrates the affinity of the compounds of the present invention for nicotinic and muscarinic receptors as determined by ^3 H-MCC and ^3 H-Oxo binding to rat cortical receptors. […]

Data set [2] concerns the target T1, nicotinic acetylcholine receptors (rat cortical receptors) (Rattus norvegicus, UniProt P09483+P12390).
T1 construct: Fresh or frozen rat, brain tissue (hippocampus or cortex) was homogenized; from tissue; host or cells: rat brain tissue (hippocampus or cortex)
The experiment in a line: Inhibition of specific binding of ^3 H-methylcarbamylcholine (^3 H-MCC). The conditions noted are these: for Ratio Oxo/MCC: IC50 ^3 H-Oxo / IC50 ^3 H-MCC, selectivity nicotinic over muscarinic; for IC50: rat cortical receptors, ^3 H-MCC 2 nM, 0° C., 60 min. An excerpt: The pharmacological properties of the compounds of the invention can be illustrated by determining their capability to inhibit the specific binding of ^3 H-methylcarbamylcholine (^3 H-MCC) (Abood and Grassi, Biochem. Pharmacol., Vol. 35, pp. 4199--4202, (1986)).
^3 H-MCC labels the nicotinic receptors in the CNS. The inhibitory effect on ^3 H-MMC binding reflects the affinity for nicotinic acetylcholine receptors.
Fresh or frozen rat, brain tissue (hippocampus or cortex) was homogenized in assay buffer (50 mM Tris-HCl, pH 7.4, 120 mM NaCl, 5 mM KCl, 2 mM CaCl2, 1 mM MgCl2) and centrifuged for 10 min. at 40.000×g. Pellets were subsequently reconstituted in assay buffer and an appropriate amount of tissue sample was mixed in tubes with ^3 H-methylcarbamylcholine (NEN, NET-951; final concentration 2 nM) and test drug. The tubes were incubated at 0° C. for 60 min. Unbound ligand was separated from bound ligand by vacuum filtration through GF/B filters presoaked in 0.5% polyethylenimine. Filters were washed three times with 5 ml wash buffer (50 mM Tris-HCl, pH 7.4) and transferred to vials. 4 ml scintillation fluid was added and the radioactivity was measured by scintillation counting. Unspecific binding was measured with 10 μM nicotine.
The IC50 values of the test compounds were determined by nonlinear regression analyses (GraphPad InPlot).
Table I illustrates the affinity of the compounds of the present invention for nicotinic and muscarinic receptors as determined by ^3 H-MCC and ^3 H-Oxo binding to rat cortical receptors. The compounds, however, show selective affinity for nicotinic receptors as compared to muscarinic receptors, i.e OXO/MCC>1.

A further data set has as its system nicotinic. The conditions noted are these: age related; cited from earlier work.
In another data set the test system is substantia nigra. The conditions noted are these: chronic nicotine; lesioning; cited from earlier work.
The next data set deals with Tourette's syndrome. The conditions noted are these: in vivo; cited from earlier work.
For data set [3], the system named is Alzheimer's disease patients. The conditions noted are these: cited from earlier work.
A further data set has as its system healthy humans. The conditions noted are these: cited from earlier work.
Another data set concerns dopaminergic effects. The conditions noted are these: various behavioral models; cited from earlier work.
In another data set the test system is dopamine release. The conditions noted are these: nucleus accumbens versus striatum; cited from earlier work.
The target of data set [4] is muscarinic acetylcholine receptors (rat cortical receptors). As to conditions: read-out: affinity of site labelled by ^3 H-Oxo, cited from earlier work.

T1 sequence (P09483 31-630): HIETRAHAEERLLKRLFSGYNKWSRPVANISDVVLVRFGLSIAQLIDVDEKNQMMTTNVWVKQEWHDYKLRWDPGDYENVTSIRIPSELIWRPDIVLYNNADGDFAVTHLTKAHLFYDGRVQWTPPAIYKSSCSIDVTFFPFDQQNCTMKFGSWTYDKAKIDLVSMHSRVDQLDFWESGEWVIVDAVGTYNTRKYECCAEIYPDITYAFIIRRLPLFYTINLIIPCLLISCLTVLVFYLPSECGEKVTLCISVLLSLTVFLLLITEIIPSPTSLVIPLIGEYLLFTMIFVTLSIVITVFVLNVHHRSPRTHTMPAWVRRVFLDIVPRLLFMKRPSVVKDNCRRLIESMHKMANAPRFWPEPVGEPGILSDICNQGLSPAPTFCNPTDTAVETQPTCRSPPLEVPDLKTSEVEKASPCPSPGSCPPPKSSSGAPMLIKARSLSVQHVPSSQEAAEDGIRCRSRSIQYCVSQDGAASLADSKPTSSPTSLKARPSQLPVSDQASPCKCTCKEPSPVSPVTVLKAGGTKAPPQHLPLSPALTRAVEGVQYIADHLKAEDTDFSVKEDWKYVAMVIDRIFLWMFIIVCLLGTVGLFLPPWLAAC
T1 sequence (P12390 25-500): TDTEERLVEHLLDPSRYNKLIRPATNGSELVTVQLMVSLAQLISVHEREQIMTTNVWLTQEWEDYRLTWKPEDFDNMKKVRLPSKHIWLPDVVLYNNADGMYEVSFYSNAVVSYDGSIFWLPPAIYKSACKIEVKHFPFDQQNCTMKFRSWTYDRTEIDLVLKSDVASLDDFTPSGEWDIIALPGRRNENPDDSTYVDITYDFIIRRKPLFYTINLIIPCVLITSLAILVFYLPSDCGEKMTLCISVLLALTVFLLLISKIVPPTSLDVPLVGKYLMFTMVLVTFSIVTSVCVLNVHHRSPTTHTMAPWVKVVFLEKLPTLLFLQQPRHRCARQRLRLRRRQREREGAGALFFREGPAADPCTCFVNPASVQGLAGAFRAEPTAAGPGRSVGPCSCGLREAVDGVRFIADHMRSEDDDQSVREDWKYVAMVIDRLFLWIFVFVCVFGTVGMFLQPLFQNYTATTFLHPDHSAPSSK

In the case of `Cc1cc(/C=C2\CN3CCCC2C3)on1.O=C(O)C(=O)O` (stereo not shown) [Compound 3, (Z)-6-(3-methyl-5-isoxazolyl)methylene-1-azabicyclo[3.2.1]octane oxalate], the IC50 in data set [1] is 953 nM. In [2], the “Ratio Oxo/MCC” value was found to be 5.9 and the IC50 is 161 nM.
Take `CNC1(C)C2CCC(C2)C1(C)C` (stereo not shown) [mecamylamine]: the cognitive impairment entry in the data set on nicotinic was “cause cognitive impairment in an age related way”.
`CN1CCCC1c1cccnc1` (stereo not shown) [nicotine]: the “protection against cell loss in the substantia nigra” value in the data set with substantia nigra is “may protect against cell loss in the substantia nigra caused by lesioning”. In addition, the “effects in Tourette's syndrome” value in the data set with Tourette's syndrome is “beneficial effects in Tourette's syndrome”. For the same molecule, the attention and memory entry in data set [3] was “improved attention and memory”; with healthy humans, “improved attention and memory”. Besides, in the data set on dopaminergic effects, the “potentiation of dopaminergic effects” value is on record as “will potentiate dopaminergic effects in various behavioral models”. The dopamine release entry in the data set with dopamine release is recorded as “stimulates dopamine release in the nucleus accumbens more potently than in striatum”.
`Cc1cc(/C=C2\CN3CCC2C3)on1.O=C(O)C(=O)O` (stereo not shown) [Compound 5, (Z)-3-(3-methyl-5-isoxazolyl)methylene-1-azabicyclo[2.2.1]heptane oxalate] had an IC50 in data set [1] of 430 nM. Moreover, in data set [2], the “Ratio Oxo/MCC” value worked out at 17.2 and the IC50 was found to be 25 nM.
The matching figures for `Cc1cc(/C=C2/CN3CCCC2C3)on1.O=C(O)C(=O)O` (stereo not shown) [Compound 4, (E)-6-(3-methyl-5-isoxazolyl)methylene-1-azabicyclo[3.2.1]octane oxalate]: 1780 nM, 22.1 and 81 nM.
Taken in the same sequence, the figures for `Cc1cc(/C=C2/CN3CCC2C3)on1.O=C(O)C(=O)O` (stereo not shown) [Compound 6, (E)-3-(3-methyl-5-isoxazolyl)methylene-1-azabicyclo[2.2.1]heptane oxalate] were 1100 nM, 55.0 and 20 nM.
As for `C[N+](C)(C)CC#CCN1CCCC1=O` [^3 H-Oxo, ^3 H-Oxotremorine-M], the Kd in [4] (high affinity site) was 1.8 nM; in data set [4] (medium affinity site), 20 nM; in data set [4] (third (lowest affinity) site, not determined under the present conditions) it was 3000 nM.

Source of the values: US5859004A, “Use of heterocyclic compounds for the treatment of conditions caused by malfunctioning of the nicotinic cholinergic system” (Novo Nordisk A/S, priority 1995, dated 1999).
